We go through three compounds from ChEMBL document CHEMBL4420076, “Amylin and calcitonin receptor agonist” (2017).

Numbered stars: 1 amine (or outer) side, 2 acyl side, 3 side chain; on linkers, the order of the positions; unused ones are H or OH. Peptide text beside a SMILES is read from it. * marks the point of attachment. C20 diacid = O=C(O)CCCCCCCCCCCCCCCCCCC(=O)*; C16 diacid = O=C(O)CCCCCCCCCCCCCCC(=O)*; γGlu = O=C(O)[C@H](CCC(=O)[*:2])N[*:1]; AEEA = NCCOCCOCC(=O)O

Series [1] in a line: Solubility in 100 mM glycylglycine buffer at pH 4.0 incubated for 18 hrs by UPLC analysis. Type of series: physicochemical.
The subject of series [2] is Rattus norvegicus. Briefly: Reduction in food intake in Sprague-Dawley rat at 3 nmol/kg measured 24 to 48 hrs post dose relative to control. Type of series: functional. Details: scale not given: the % may be the effect or the level left.
A short description of series [3]: Solubility in 100 mM bistrispropane buffer at pH 6.5 incubated for 18 hrs by UPLC analysis. Type of series: physicochemical.
The target of series [4] is T1, Calcitonin receptor (Homo sapiens, UniProt P30988).
T1 sequence (P30988 whole entry): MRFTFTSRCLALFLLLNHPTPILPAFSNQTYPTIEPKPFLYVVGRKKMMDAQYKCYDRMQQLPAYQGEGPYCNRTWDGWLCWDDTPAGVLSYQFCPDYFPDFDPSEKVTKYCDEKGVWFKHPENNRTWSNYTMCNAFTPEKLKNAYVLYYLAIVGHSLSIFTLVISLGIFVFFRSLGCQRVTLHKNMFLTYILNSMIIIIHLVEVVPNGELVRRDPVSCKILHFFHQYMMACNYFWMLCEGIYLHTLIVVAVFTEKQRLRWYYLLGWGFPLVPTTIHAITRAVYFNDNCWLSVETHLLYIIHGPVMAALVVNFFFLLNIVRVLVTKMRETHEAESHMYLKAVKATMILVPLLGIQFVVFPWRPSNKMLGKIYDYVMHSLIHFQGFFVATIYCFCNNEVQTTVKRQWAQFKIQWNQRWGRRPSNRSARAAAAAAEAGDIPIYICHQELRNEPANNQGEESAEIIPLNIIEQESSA
Description: Agonist activity at human calcitonin receptor expressed in BHK570 cells assessed as increase in intracellular cAMP concentration incubated for 3 hrs in presence of 10% FBS by CRE luciferase reporter gene assay. Type of series: functional, cell-based. In general terms: Reporter assays use an easily measured gene product as a stand-in for the process of interest.

Series [5] has as its target T2, Amylin receptor AMY3; CALCR/RAMP3 (Homo sapiens, UniProt O60896+P30988).
T2 sequence (P30988 whole entry): T1 sequence (P30988 whole entry)
T2 sequence (O60896 whole entry): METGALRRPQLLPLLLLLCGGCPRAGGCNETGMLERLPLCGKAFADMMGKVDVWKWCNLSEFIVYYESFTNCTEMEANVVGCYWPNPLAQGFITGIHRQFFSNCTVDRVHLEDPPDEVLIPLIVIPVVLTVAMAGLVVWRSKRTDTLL
Description: Displacement of [125I]-labeled rat amylin from human amylin receptor expressed in BHK570 cell membranes co-expressing RAMP3 incubated for 120 mins by scintillation proximity assay. On the technique in general: In a radioligand displacement assay an active substance lowers the binding of a labelled ligand.

The nature of series [6]: Solubility in 100 mM bistrispropane buffer at pH 7.5 incubated for 18 hrs by UPLC analysis. Type of series: physicochemical.
Series [7] can be described thus: Solubility in 100 mM glycylglycine buffer at pH 3.0 incubated for 18 hrs by UPLC analysis. Type of series: physicochemical.
The nature of series [8]: Solubility in 100 mM bistrispropane buffer at pH 6.0 incubated for 18 hrs by UPLC analysis. Type of series: physicochemical.
Series [9] can be described thus: Solubility in 100 mM glycylglycine buffer at pH 5.0 incubated for 18 hrs by UPLC analysis. Type of series: physicochemical.
For series [10], the target named is T3, Amylin receptor AMY3; CALCR/RAMP3 (Rattus norvegicus, UniProt P32214+Q9JJ73).
T3 sequence (P32214 whole entry): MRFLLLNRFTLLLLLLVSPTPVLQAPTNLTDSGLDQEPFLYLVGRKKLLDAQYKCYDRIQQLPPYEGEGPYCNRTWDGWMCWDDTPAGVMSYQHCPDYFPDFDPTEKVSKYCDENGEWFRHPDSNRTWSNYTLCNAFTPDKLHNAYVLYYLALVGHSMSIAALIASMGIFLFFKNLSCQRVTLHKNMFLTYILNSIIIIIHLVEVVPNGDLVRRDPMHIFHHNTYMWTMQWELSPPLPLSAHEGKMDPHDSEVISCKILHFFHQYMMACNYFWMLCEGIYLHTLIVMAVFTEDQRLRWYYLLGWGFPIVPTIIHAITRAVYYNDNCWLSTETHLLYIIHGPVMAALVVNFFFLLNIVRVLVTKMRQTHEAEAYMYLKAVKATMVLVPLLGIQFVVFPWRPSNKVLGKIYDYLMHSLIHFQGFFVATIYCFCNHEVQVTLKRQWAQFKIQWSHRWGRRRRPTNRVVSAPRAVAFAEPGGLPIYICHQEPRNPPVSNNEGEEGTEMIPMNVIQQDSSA
T3 sequence (Q9JJ73 whole entry): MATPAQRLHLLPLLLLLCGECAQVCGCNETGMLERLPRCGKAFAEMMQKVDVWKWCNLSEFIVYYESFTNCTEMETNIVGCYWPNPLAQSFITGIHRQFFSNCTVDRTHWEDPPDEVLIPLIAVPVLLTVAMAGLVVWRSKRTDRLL
Description: Displacement of [125I]-labeled rat amylin from rat amylin receptor expressed in BHK tkts13 cell membranes co-expressing RAMP3 incubated for 120 mins by scintillation proximity assay.

The test system of series [11] is Rattus norvegicus. Description: Reduction in food intake in Sprague-Dawley rat at 3 nmol/kg measured 0 to 24 hrs post dose relative to control. Type of series: functional. More on the design: scale not given: the % may be the effect or the level left.
The nature of series [12]: Solubility in 100 mM bistrispropane buffer at pH 8.0 incubated for 18 hrs by UPLC analysis. Type of series: physicochemical.
Series [13] is described as follows: Solubility in 100 mM bistrispropane buffer at pH 7.0 incubated for 18 hrs by UPLC analysis. Type of series: physicochemical.
The target in series [14] is T2, Amylin receptor AMY3; CALCR/RAMP3. Description: Agonist activity at human amylin receptor expressed in BHK570 cells co-expressing RAMP3 assessed as increase in intracellular cAMP concentration incubated for 3 hrs in absence of albumin by CRE luciferase reporter gene assay. Type of series: functional, cell-based.
Series [15] has the same target. Description: Agonist activity at human amylin receptor expressed in BHK570 cells co-expressing RAMP3 assessed as increase in intracellular cAMP concentration incubated for 3 hrs in presence of 10% FBS by CRE luciferase reporter gene assay. Type of series: functional, cell-based.
Series [16] is described as follows: Stability in pH 7.5 buffer assessed as compound recovery at 1 uM by Thioflavin T based fluorescence assay. Type of series: physicochemical. As to conditions: read-out: Drug recovery.
Series [17] has as its target T1, Calcitonin receptor. Description: Agonist activity at human calcitonin receptor expressed in BHK570 cells assessed as increase in intracellular cAMP concentration incubated for 3 hrs in absence of albumin by CRE luciferase reporter gene assay. Type of series: functional, cell-based.
Series [18] has as its target T1, Calcitonin receptor. Description: Displacement of [125I]-labeled human calcitonin from human calcitonin receptor expressed in BHK tkts13 cell membranes incubated for 1 hr by scintillation proximity assay.
Series [19] can be described thus: Stability in pH 7.5 buffer assessed as lag time for fibril formation at 1 uM by Thioflavin T based fluorescence assay. As to conditions: pH 7.5, 1 µM. Type of series: physicochemical.

`CC(C)C[C@H](NC(=O)[C@H](C)NC(=O)[C@H](C)NC(=O)[C@@H](NC(=O)[C@H](CO)NC(=O)[C@H](CC(C)C)NC(=O)[C@H](CCC(=O)O)NC(=O)[C@H](CO)NC(=O)[C@H](C)NC(=O)CCCCCCCCCCCCCCC(=O)O)[C@@H](C)O)C(=O)NCC(=O)N[C@@H](CCCNC(=N)N)C(=O)N[C@@H](CC(C)C)C(=O)N[C@@H](CO)C(=O)N[C@@H](C)C(=O)N[C@@H](CCC(=O)O)C(=O)N[C@@H](CC(C)C)C(=O)N[C@@H](Cc1cnc[nH]1)C(=O)N[C@@H](CCC(=O)O)C(=O)N[C@@H](CC(C)C)C(=O)N[C@@H](C)C(=O)N[C@H](C(=O)N[C@@H](CC(C)C)C(=O)N1CCC[C@H]1C(=O)N[C@@H](CCCNC(=N)N)C(=O)N[C@H](C(=O)N[C@@H](CCC(=O)O)C(=O)N[C@H](C(=O)NCC(=O)N[C@@H](CO)C(=O)NCC(=O)N[C@@H](CO)C(=O)N1CCC[C@H]1C(N)=O)[C@@H](C)O)[C@@H](C)O)[C@@H](C)O` ({C16 diacid}-ASELSTAALGRLSAELHELATLPRTETGSGSP-NH2): the solubility at 18 h in [1], in [3], in [6], in series [7], in series [8] and in series [9] was at least 200 µM throughout. Besides, the solubility at 18 h in [12] and in [13] was at least 200 µM each time. Moreover, the Activity in the series with Rattus norvegicus [2] was -2%; in the series with Rattus norvegicus [11] it was 28%. Moreover, the values for the 50% effective concentration (EC50) (on Calcitonin receptor [4]; in series [14]; in series [15]) were 0.003 nM, 0.01 nM and 0.004 nM, respectively. In addition, the 50% inhibitory concentration (IC50) in series [5] was 0.015 nM; in series [10], 0.064 nM.

Turning to `CC(C)C[C@H](NC(=O)[C@H](C)NC(=O)[C@H](C)NC(=O)[C@@H](NC(=O)[C@H](CO)NC(=O)[C@H](CC(C)C)NC(=O)[C@H](CCC(=O)O)NC(=O)[C@H](CO)NC(=O)[C@H](C)NC(=O)COCCOCCNC(=O)CC[C@H](NC(=O)CCCCCCCCCCCCCCCCCCC(=O)O)C(=O)O)[C@@H](C)O)C(=O)NCC(=O)N[C@@H](CCCNC(=N)N)C(=O)N[C@@H](CC(C)C)C(=O)N[C@@H](CO)C(=O)N[C@@H](C)C(=O)N[C@@H](CCC(=O)O)C(=O)N[C@@H](CC(C)C)C(=O)N[C@@H](Cc1cnc[nH]1)C(=O)N[C@@H](CCC(=O)O)C(=O)N[C@@H](CC(C)C)C(=O)N[C@@H](C)C(=O)N[C@H](C(=O)N[C@@H](CC(C)C)C(=O)N1CCC[C@H]1C(=O)N[C@@H](CCCNC(=N)N)C(=O)N[C@H](C(=O)N[C@@H](CCC(=O)O)C(=O)N[C@H](C(=O)NCC(=O)N[C@@H](CO)C(=O)NCC(=O)N[C@@H](CO)C(=O)N1CCC[C@H]1C(N)=O)[C@@H](C)O)[C@@H](C)O)[C@@H](C)O` ({C20 diacid-γGlu-AEEA}-ASELSTAALGRLSAELHELATLPRTETGSGSP-NH2), the solubility at 18 h in series [1], in series [3], in [6], in series [7], in [8] and in series [9] was at least 200 µM in each case. Further, the solubility at 18 h in series [12] and in [13] was at least 200 µM in each case. Also, in [16], the remaining at 1 µM came to 100%. Besides, the EC50 on Calcitonin receptor [4] was 0.03 nM; at Calcitonin receptor [17], 0.018 nM; in series [14], 0.027 nM; in series [15], 0.073 nM. In addition, the IC50 on Calcitonin receptor [18] is 0.085 nM; in series [10], 0.146 nM. In series [19], the Time was above 45 h.

On to `CC(C)C[C@H](NC(=O)[C@H](CCCNC(=N)N)NC(=O)CNC(=O)[C@H](CC(C)C)NC(=O)[C@@H](NC(=O)[C@H](C)NC(=O)[C@@H](NC(=O)[C@H](CO)NC(=O)[C@H](CC(C)C)NC(=O)[C@H](CCC(=O)O)NC(=O)[C@H](CO)NC(=O)[C@H](C)NC(=O)CC[C@H](NC(=O)CCCCCCCCCCCCCCCCCCC(=O)O)C(=O)O)[C@@H](C)O)[C@@H](C)O)C(=O)N[C@@H](CO)C(=O)N[C@@H](C)C(=O)N[C@@H](CCC(=O)O)C(=O)N[C@@H](CC(C)C)C(=O)N[C@@H](Cc1cnc[nH]1)C(=O)N[C@@H](CCC(=O)O)C(=O)N[C@@H](CC(C)C)C(=O)N[C@@H](CO)C(=O)N[C@H](C(=O)N[C@@H](Cc1ccc(O)cc1)C(=O)N1CCC[C@H]1C(=O)N[C@@H](CCCNC(=N)N)C(=O)N[C@H](C(=O)N[C@@H](CCC(=O)O)C(=O)N[C@H](C(=O)NCC(=O)N[C@@H](CO)C(=O)NCC(=O)N[C@@H](CO)C(=O)N[C@@H](Cc1ccc(O)cc1)C(N)=O)[C@@H](C)O)[C@@H](C)O)[C@@H](C)O` ({C20 diacid-γGlu}-ASELSTATLGRLSAELHELSTYPRTETGSGSY-NH2), for which the solubility at 18 h in [1], in [3], in series [6], in series [7], in series [8] and in [12] was at least 200 µM throughout. In [13], the solubility at 18 h was at least 200 µM. Also, the Activity is 68% in the series with Rattus norvegicus [2] and 46% in the series with Rattus norvegicus [11]. Besides, the EC50 at Calcitonin receptor [4] is 0.04 nM; at Calcitonin receptor [17] it was 0.023 nM; in [14], 0.02 nM; in [15] it was 0.092 nM. In addition, the IC50 in series [5] was 0.159 nM; in series [10], 0.045 nM.

One may read the solubility as how much of the substance goes into solution per volume. As a reminder, the EC50 is the concentration at which the effect is half-maximal. As usually defined, the IC50 is the midpoint of a concentration-inhibition curve.
